Data taken from ChEMBL document CHEMBL2311345, “Facile synthesis and characterization of novel pyrazole-sulfonamides and their inhibition effects on human carbonic anhydrase isoenzymes” (Bioorg Med Chem, 2013).

How the values were obtained:
Carbonic anhydrase 1 = Carbonic anhydrase 1 (Homo sapiens, UniProt P00915); assay: Un-competitive inhibition of human erythrocytes carbonic anhydrase 1 esterase activity by Lineweaver-Burk plot analysis
Carbonic anhydrase 2 = Carbonic anhydrase 2 (Homo sapiens, UniProt P00918); assay: Un-competitive inhibition of human erythrocytes carbonic anhydrase 2 esterase activity by Lineweaver-Burk plot analysis

Sequence of Carbonic anhydrase 1 (P00915 whole entry): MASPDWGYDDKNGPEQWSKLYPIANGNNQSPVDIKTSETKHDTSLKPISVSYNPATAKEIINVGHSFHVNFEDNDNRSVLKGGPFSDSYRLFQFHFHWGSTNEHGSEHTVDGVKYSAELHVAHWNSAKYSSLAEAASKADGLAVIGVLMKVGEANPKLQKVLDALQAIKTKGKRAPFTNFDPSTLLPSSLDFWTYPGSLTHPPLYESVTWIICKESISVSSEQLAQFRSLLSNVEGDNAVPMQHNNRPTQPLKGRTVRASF

Row | Structure (SMILES) | Ki (Carbonic anhydrase 1) [µM] | Ki (Carbonic anhydrase 2) [µM]
1 | CC(=O)/C(=N\Nc1cccc(-n2nc(C(=O)Nc3ccc(S(N)(=O)=O)cc3)c(C(=O)O)c2-c2ccccc2)c1)C(=O)c1ccccc1 | 0.0623 | –
2 | NS(=O)(=O)c1ccc(NC(=O)c2nn(-c3cccc(/N=N/c4c(O)ccc5ccccc45)c3)c(-c3ccccc3)c2C(=O)O)cc1 | – | 0.0124
